Test results: ChEMBL document CHEMBL1148373, “2-amino-O4-benzylpteridine derivatives: potent inactivators of O6-alkylguanine-DNA alkyltransferase” (2004)
Activity calls are given as the source filed them. The calls are words filed in the database; no cut-off is given here.

What was measured:
HT-29 [1] = assay: Effective dose required to kill 90% of HT-29 cells with BCNU (40 uM); type: functional, Homo sapiens
HT-29 [2] = assay: Effective dose required to kill 90% of HT-29 cells with BCNU (40 uM); RPMI medium; type: functional, Homo sapiens
HT-29 [3] = assay: Effective dose required to kill 90% of HT-29 cells with BCNU (40 uM); folate-free RPMI medium; type: functional, Homo sapiens
HT-29 [4] = assay: Effective dose required to kill 90% of HT-29 cells with BCNU (40 uM; type: functional, cell-based; details: Homo sapiens
HT-29 [5] = assay: Effective dose required to kill 90% of HT-29 cells with BCNU (40 Dulbecco''s medium; type: functional, Homo sapiens
[6] = target: T1, Methylated-DNA--protein-cysteine methyltransferase (Homo sapiens) (UniProt P16455)
T1 sequence (whole entry): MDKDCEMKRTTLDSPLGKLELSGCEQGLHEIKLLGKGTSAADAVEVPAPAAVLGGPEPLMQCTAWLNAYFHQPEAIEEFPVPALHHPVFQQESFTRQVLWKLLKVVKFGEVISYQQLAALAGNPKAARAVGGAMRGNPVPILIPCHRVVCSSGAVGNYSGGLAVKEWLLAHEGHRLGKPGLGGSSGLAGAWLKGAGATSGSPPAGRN
Description: In vitro inactivation of human O6-alkylguanine-DNA alkyltransferase in the presence of calf thymus DNA (ctDNA)

[7] = target: T1, Methylated-DNA--protein-cysteine methyltransferase (Homo sapiens); remark: listed apart in the source
Description: In vitro inactivation of human O6-alkylguanine-DNA alkyltransferase in the absence of calf thymus DNA (ctDNA)

HT-29 [8] = assay: Effective dose required to kill 90% HT-29 cells with BCNU (40 uM); type: functional, Homo sapiens

Work on Nc1nc(OCc2ccccc2)c2nc(C=O)cnc2n1 yielded an ED90 (HT-29 [1]) of 700 nM.

In the case of Nc1nc(OCc2ccccc2)c2nc(CNc3ccc(C(=O)N[C@@H](CCC(=O)O)C(=O)O)cc3)cnc2n1, the ED90 (HT-29 [2]) is reported as 24000 nM and the ED90 (HT-29 [3]) is reported as 15000 nM.

In the case of Nc1nc(OCc2ccccc2)c2nc(C(=O)O)cnc2n1, the ED90 (HT-29 [4]) is reported as “inactive”.

For Nc1nc(OCc2ccccc2)c2nc[nH]c2n1 [6-O-BENZYLGUANINE], the ED90 (HT-29 [2]) was 700 nM, the ED90 (HT-29 [5]) was 400 nM and the ED50 [6] was 120 nM. For the same compound, the ED50 [7] was 320 nM.

Work on Nc1nc(OCc2ccccc2)c2nccnc2n1 yielded an ED90 (HT-29 [1]) of 200 nM.

For Cc1nc2nc(N)nc(OCc3ccccc3)c2nc1C, the ED90 (HT-29 [1]) was 600 nM.

Nc1nc(OCc2ccccc2)c2nc(CO)cnc2n1 gave an ED90 (HT-29 [8]) of 700 nM.
